Results taken from US12448369B2 (Edgewise Therapeutics, Inc., priority 2023, dated 2025).

How the values were obtained:
[1] = target: T1, Porcine ventricle myofibrils (ventricular myosin ATPase) (Sus scrofa, UniProt P79293); test: Myofibril ATPase assay, porcine ventricle myofibrils; format: biochemical, porcine (Yucatan minipigs); conditions: porcine ventricle myofibrils; Y75 value
T1 construct: Myofibrils from porcine cardiac muscle was isolated from the left ventricle of Yucatan minipigs; tissue Exemplar Genetics; host or cells: left ventricle of Yucatan minipigs, myofibrils prepared in house
T1 sequence (P79293 whole entry): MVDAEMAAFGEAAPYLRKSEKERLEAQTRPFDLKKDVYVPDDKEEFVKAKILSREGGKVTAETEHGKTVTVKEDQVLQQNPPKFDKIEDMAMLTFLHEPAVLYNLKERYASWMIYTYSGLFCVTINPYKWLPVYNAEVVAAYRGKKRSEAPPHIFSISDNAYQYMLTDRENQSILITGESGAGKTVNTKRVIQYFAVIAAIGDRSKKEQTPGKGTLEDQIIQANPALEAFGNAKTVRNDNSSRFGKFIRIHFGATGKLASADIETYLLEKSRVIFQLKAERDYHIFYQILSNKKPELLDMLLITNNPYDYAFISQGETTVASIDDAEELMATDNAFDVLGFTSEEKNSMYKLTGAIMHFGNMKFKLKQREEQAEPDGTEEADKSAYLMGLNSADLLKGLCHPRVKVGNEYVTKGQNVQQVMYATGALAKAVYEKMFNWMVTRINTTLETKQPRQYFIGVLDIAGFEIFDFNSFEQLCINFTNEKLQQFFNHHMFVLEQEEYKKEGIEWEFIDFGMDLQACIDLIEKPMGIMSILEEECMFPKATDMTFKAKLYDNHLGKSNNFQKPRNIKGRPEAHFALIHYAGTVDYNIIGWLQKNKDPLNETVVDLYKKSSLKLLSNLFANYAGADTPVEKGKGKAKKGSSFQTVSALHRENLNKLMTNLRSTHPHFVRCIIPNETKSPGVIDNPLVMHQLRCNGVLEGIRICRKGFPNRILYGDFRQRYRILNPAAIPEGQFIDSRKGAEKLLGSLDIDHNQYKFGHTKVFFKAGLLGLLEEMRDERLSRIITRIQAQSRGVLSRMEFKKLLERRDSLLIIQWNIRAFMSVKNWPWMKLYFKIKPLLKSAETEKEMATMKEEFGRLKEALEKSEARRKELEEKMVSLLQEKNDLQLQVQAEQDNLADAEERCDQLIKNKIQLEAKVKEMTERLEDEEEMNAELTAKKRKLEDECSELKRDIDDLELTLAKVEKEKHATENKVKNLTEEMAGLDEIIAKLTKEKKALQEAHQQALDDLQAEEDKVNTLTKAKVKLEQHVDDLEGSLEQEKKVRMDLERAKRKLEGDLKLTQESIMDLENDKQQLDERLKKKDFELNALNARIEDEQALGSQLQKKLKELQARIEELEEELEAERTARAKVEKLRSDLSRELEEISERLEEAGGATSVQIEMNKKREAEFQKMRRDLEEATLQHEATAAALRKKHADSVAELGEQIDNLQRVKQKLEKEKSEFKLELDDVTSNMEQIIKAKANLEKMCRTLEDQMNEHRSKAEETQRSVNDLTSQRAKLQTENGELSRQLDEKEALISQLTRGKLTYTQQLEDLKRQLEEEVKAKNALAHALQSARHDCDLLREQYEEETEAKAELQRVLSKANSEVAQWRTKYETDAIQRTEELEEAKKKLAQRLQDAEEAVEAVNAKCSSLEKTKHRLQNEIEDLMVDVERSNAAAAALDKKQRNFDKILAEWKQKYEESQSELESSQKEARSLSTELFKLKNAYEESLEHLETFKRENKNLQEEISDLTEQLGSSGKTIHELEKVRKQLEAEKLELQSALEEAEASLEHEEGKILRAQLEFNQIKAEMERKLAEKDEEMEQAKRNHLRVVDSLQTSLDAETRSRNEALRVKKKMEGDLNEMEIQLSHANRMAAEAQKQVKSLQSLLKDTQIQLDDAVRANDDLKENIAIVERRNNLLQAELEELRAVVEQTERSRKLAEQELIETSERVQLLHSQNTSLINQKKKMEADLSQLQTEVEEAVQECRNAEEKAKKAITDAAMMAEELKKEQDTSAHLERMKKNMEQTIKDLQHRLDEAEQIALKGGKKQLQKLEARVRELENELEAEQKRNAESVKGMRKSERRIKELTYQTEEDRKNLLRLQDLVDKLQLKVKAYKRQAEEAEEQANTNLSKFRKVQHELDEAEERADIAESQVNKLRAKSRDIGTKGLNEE
Method in brief: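 Read-out: A340 kinetic, NADH consumption coupled to ADP via PK-LDH, 75 min. Yucatan minipig LV myofibrils, pCa buffer (PIPES/CaCl2/EGTA, pH 7.0). Linear-regression slope (mAU/min), vehicle = 100%, 4PL fit; Y75 or Y125 reported.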

[2] = system: Rabbit Psoas myofibrils (skeletal myosin ATPase); test: Myofibril ATPase assay, rabbit psoas (skeletal) myofibrils; format: biochemical; conditions: rabbit psoas myofibrils; Y75 value
Method in brief: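 Rabbit psoas skeletal myofibrils in PIPES/CaCl2/EGTA pCa buffer, pH 7.0. ATPase rate followed by PK-LDH-coupled NADH loss at 340 nm, read every 1.5–2 min for 75 min. Slopes normalized to vehicle (100%) and fitted to a 4-parameter logistic; values are Y75 (25% inhibition) or Y125 (25% activation) concentrations.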

[3] = system: Porcine atria myofibrils (atrial myosin ATPase); test: Myofibril ATPase assay, porcine atria myofibrils; format: biochemical; conditions: porcine atria myofibrils; Y75 value (75% activity relative to no compound)
Method in brief: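 Coupled PK-LDH reaction links ADP from myosin ATPase to NADH loss, read at 340 nm every 1.5-2 min for 75 min. Slopes (mAU/min) normalized to vehicle-only wells (100%) and fit to a 4-parameter logistic; Y75 is the concentration cutting activity by 25%, Y125 is reported for activators.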

SMILES	Ventricular EC25 [1]	Skeletal EC25 [2]	Atrial EC25 [3]
Cc1c(C(C)C(=O)N[C@@H](C)c2ccc(F)cc2F)c(=O)[nH]c2ccncc12 (stereo partly drawn) [compound 440]	100.00 µM	2.78 µM	34.65 µM
C[C@H](NC(=O)Cc1cc2cnccc2[nH]c1=O)c1ccc(F)cc1F [compound 441]	100.00 µM	1.88 µM	3.48 µM
Cc1c(CC(=O)N[C@@H](C)c2ccc(F)cc2F)c(=O)[nH]c2ccncc12 [compound 448]	7.29 µM	0.17 µM	0.65 µM
Cc1c(CC(=O)N[C@H](C)c2ccc(C#N)cn2)c(=O)[nH]c2ccc(OC(F)(F)F)nc12 [compound 449]	100.00 µM	100.00 µM	100.00 µM
Cc1nncc2[nH]c(=O)c(CC(=O)N[C@H](C)c3ncc(C#N)cc3F)cc12 [compound 451]	100.00 µM	100.00 µM	100.00 µM
Cc1nncc2[nH]c(=O)c(CC(=O)N[C@@H](C)c3ncc(C#N)cc3F)cc12 [compound 452]	100.00 µM	100.00 µM	63.47 µM
C[C@@H](NC(=O)Cc1c(Cl)c2cnccc2[nH]c1=O)c1ccc(C#N)cn1 [compound 453]	100.00 µM	9.12 µM	8.79 µM
C[C@H](NC(=O)Cc1c(Cl)c2cnccc2[nH]c1=O)c1ccc(C#N)cn1 [compound 454]	52.30 µM	4.25 µM	7.21 µM
Cc1c(CC(=O)N[C@H](C)c2ncc(C#N)cc2F)c(=O)[nH]c2ccc(OC(F)(F)F)nc12 [compound 455]	100.00 µM	5.74 µM	7.11 µM
Cc1c(CC(=O)N[C@@H](C)c2cnc(C#N)nc2)c(=O)[nH]c2ccc(C(F)(F)F)nc12 [compound 458]	100.00 µM	10.51 µM	0.79 µM
Cc1c(CC(=O)N[C@H](C)c2ccc(C#N)cn2)c(=O)[nH]c2ccc(C(F)(F)F)nc12 [compound 459]	100.00 µM	100.00 µM	3.13 µM
Cc1c(CC(=O)N[C@@H](C)c2ccc(C#N)cn2)c(=O)[nH]c2ccc(C(F)(F)F)nc12 [compound 460]	30.78 µM	100.00 µM	1.53 µM
Cc1ccc2[nH]c(=O)c(CC(=O)N[C@@H](C)c3ncc(C#N)cc3F)cc2n1 [compound 463]	26.99 µM	9.72 µM	4.39 µM
Cc1nc(C#N)ncc1[C@H](C)NC(=O)Cc1c(C)c2c(C)nccc2[nH]c1=O [compound 465]	100.00 µM	47.72 µM	100.00 µM
Cc1ccc2[nH]c(=O)c(CC(=O)N[C@H](C)c3ncc(C#N)cc3F)c(C)c2n1 [compound 468]	1.48 µM	4.03 µM	0.80 µM
C[C@H](NC(=O)Cc1cc2c(C#N)nccc2[nH]c1=O)c1ccc(C#N)cn1 [compound 473]	6.63 µM	0.30 µM	1.44 µM
C[C@H](NC(=O)Cc1cc2c(C#N)nccc2[nH]c1=O)c1ccc(F)cn1 [compound 475]	39.76 µM	2.98 µM	100.00 µM
Cc1nc([C@@H](C)NC(=O)Cc2c(C)c3c(C)nccc3[nH]c2=O)ncc1C#N [compound 478]	33.12 µM	65.26 µM	5.84 µM
Cc1cnncc1[C@H](C)NC(=O)Cc1c(C)c2c(C)nccc2[nH]c1=O [compound 481]	100.00 µM	100.00 µM	100.00 µM
Cc1nccc2[nH]c(=O)c(CC(=O)N[C@H](C)c3ncc(C#N)cn3)c(C)c12 [compound 482]	63.17 µM	100.00 µM	28.27 µM
Cc1nccc2[nH]c(=O)c(CC(=O)N[C@H](C)c3cnc(C#N)cn3)c(C)c12 [compound 486]	1.47 µM	0.20 µM	1.49 µM

More lines, now with the values ahead:

Ventricular EC25 [1]	Skeletal EC25 [2]	Atrial EC25 [3]	SMILES
20.82 µM	0.17 µM	1.14 µM	C[C@H](NC(=O)Cc1c(C2CC2)c2cnccc2[nH]c1=O)c1ccc(F)cc1F [compound 444]
20.53 µM	0.43 µM	2.32 µM	Cc1nccc2[nH]c(=O)c(CC(=O)N[C@@H](C)c3ccc(F)cc3F)cc12 [compound 445]
100.00 µM	4.59 µM	100.00 µM	Cc1cc2[nH]c(=O)c(CC(=O)N[C@@H](C)c3ccc(F)cc3F)c(C)c2cn1 [compound 446]
10.16 µM	0.05 µM	0.25 µM	C[C@H](NC(=O)Cc1c(C(F)(F)F)c2cnccc2[nH]c1=O)c1ccc(F)cc1F [compound 447]
100.00 µM	100.00 µM	100.00 µM	Cc1c(CC(=O)N[C@@H](C)c2ccc(C#N)cn2)c(=O)[nH]c2ccc(OC(F)(F)F)nc12 [compound 450]
3.69 µM	0.53 µM	0.66 µM	Cc1c(CC(=O)N[C@@H](C)c2ncc(C#N)cc2F)c(=O)[nH]c2ccc(OC(F)(F)F)nc12 [compound 456]
100.00 µM	100.00 µM	30.66 µM	Cc1c(CC(=O)N[C@H](C)c2cnc(C#N)nc2)c(=O)[nH]c2ccc(C(F)(F)F)nc12 [compound 457]
15.98 µM	100.00 µM	94.45 µM	Cc1ncc(C#N)nc1C(C)NC(=O)Cc1c(C)c2c(C)nccc2[nH]c1=O (stereo not drawn) [compound 461]
100.00 µM	100.00 µM	65.72 µM	Cc1ccc2[nH]c(=O)c(CC(=O)N[C@H](C)c3ncc(C#N)cc3F)cc2n1 [compound 462]
0.18 µM	0.03 µM	0.37 µM	Cc1nc(C#N)ncc1[C@@H](C)NC(=O)Cc1c(C)c2c(C)nccc2[nH]c1=O [compound 464]
100.00 µM	100.00 µM	100.00 µM	Cc1c(CC(=O)N[C@H](C)c2ccc(C#N)cn2)c(=O)[nH]c2ccncc12 [compound 466]
100.00 µM	16.00 µM	100.00 µM	Cc1c(CC(=O)N[C@@H](C)c2ccc(C#N)cn2)c(=O)[nH]c2ccncc12 [compound 467]
1.66 µM	0.55 µM	0.15 µM	Cc1ccc2[nH]c(=O)c(CC(=O)N[C@@H](C)c3ncc(C#N)cc3F)c(C)c2n1 [compound 469]
100.00 µM	9.89 µM	100.00 µM	Cc1cc([C@@H](C)NC(=O)Cc2cc3c(C#N)nccc3[nH]c2=O)ncc1F [compound 470]
67.58 µM	100.00 µM	100.00 µM	Cc1cc([C@H](C)NC(=O)Cc2cc3c(C#N)nccc3[nH]c2=O)ncc1F [compound 471]
5.93 µM	0.40 µM	4.05 µM	C[C@@H](NC(=O)Cc1cc2c(C#N)nccc2[nH]c1=O)c1ccc(C#N)cn1 [compound 472]
100.00 µM	15.42 µM	100.00 µM	C[C@@H](NC(=O)Cc1cc2c(C#N)nccc2[nH]c1=O)c1ccc(F)cn1 [compound 474]
100.00 µM	100.00 µM	100.00 µM	Cc1nc([C@H](C)NC(=O)Cc2c(C)c3c(C)nccc3[nH]c2=O)ncc1C#N [compound 479]
100.00 µM	33.82 µM	100.00 µM	Cc1cnncc1[C@@H](C)NC(=O)Cc1c(C)c2c(C)nccc2[nH]c1=O [compound 480]
16.67 µM	7.32 µM	4.03 µM	Cc1nccc2[nH]c(=O)c(CC(=O)N[C@@H](C)c3ncc(C#N)cn3)c(C)c12 [compound 483]
100.00 µM	100.00 µM	48.27 µM	Cc1nccc2[nH]c(=O)c(CC(=O)N[C@@H](C)c3ccc(C#N)nn3)c(C)c12 [compound 485]
3.42 µM	3.42 µM	100.00 µM	Cc1nccc2[nH]c(=O)c(CC(=O)N[C@@H](C)c3cnc(C#N)cn3)c(C)c12 [compound 487]
